{
  "source": "patent US8557844B2",
  "about": "“Substrate reduction therapy” (The Chancellor, Masters and Scholars of the University of …, priority 2007, dated 2013)",
  "key": {"[1]": {"system": "NPC1 null (CT43) CHO cells", "test": "Total GSL level (HPLC) in NPC1 null CHO cells", "type": "cell-based", "conditions": "50 μM NB-DGJ, 5 days, FIG. 3A", "description": "(§1) It has been shown that Niemann-Pick C1 cells (NPC1 null CHO cells) and normal cells treated with amphiphiles to induce an NPC1 phenotype, in addition to free cholesterol storage, have glycosphingolipid (GSL) storage (FIG. 3A) and abnormalities in endocytic transport (FIG. 3B) including defective early to late endosomal transport and late endosomal to Golgi transport (J Biol Chem 2004; 279(25):26167-75). NPC1 cells have a 2-fold increase in total GSLs (HPLC quantified) compared to controls (FIG. 3A). […] This correction in GSL levels is associated with a correction in endocytic transport defects (J Biol Chem 2004; 279(25):26167-75). Fluorescently labelled lactosylceramide (BODIPY-LacCer), a GSL normally transported through the endocytic system to the Golgi (FIG. 3Bi), is misdirected to the LE/Lys system in untreated NPC1 cells (FIG. 3Bii), indicative of GSL storage (J Biol Chem 2004; 279(25):26167-75; J Biol Chem 2003; 278(23):20961-70; Am J Hum Genet 2001; 68(6):1361-72)."}, "[2]": {"system": "NPC1 null (CT43) CHO cells", "test": "BODIPY-LacCer pulse/chase endocytic transport in NPC1 null CHO cells", "type": "cell-based", "conditions": "50 μM NB-DGJ, 5 days, 45 min pulse, 1 h chase, FIG. 3B", "description": "as §1"}, "SLOS (DHCR7−/−) MEFs": {"system": "SLOS (DHCR7−/−) MEFs", "type": "cell-based, murine", "conditions": "50 μM NB-DGJ, 5 days, medium with LPDS"}, "[3]": {"system": "DHCR7−/− mouse embryonic fibroblasts", "test": "Nile red staining of ER neutral lipids in DHCR7−/− MEFs", "type": "cell-based", "set-up": "dose or concentration left out as unconfirmed", "conditions": "5 days", "protocol": "DHCR7−/− mouse embryonic fibroblasts were grown under the conditions indicated in FIG. 9 (FCS=foetal calf serum, LPDS=lipoprotein deficient serum) for 5 days prior to staining of neutral lipids with Nile red. Under wild-type conditions (growth in FCS) Nile red stains the endoplasmic reticulum (ER) as expected. Inducing DHCR7−/− cells into a Smith-Lemli-Opitz phenotype by growth in LPDS leads to a depletion in ER neutral lipids and an elevation in punctate staining indicative of a block in transport to the ER. […] N=2."}, "[4]": {"conditions": "cited from earlier work"}, "[5]": {"system": "total ganglioside and GM1 content in cerebrum-brainstem", "conditions": "cited from earlier work"}, "GSL biosynthesis": {"system": "GSL biosynthesis", "conditions": "cited from earlier work"}, "[6]": {"conditions": "cited from earlier work", "remark": "listed apart in the source"}, "NPC1 cells": {"system": "NPC1 cells", "conditions": "depletion of stored GSLs with NB-DGJ; cited from earlier work"}},
  "note": "Entries after “also recorded” stand apart in the source; their conditions may differ.",
  "data": [
    {"smiles": "CCCCN1C[C@H](O)[C@@H](O)[C@@H](O)[C@H]1CO", "note": "[NB-DGJ, N-butyldeoxygalactonojirimycin]", "values": [
      {"measurement": "GSL storage", "setting": "[1]", "result": "reduction in GSL storage"},
      {"measurement": "BODIPY-LacCer endocytic transport", "setting": "[2]", "result": "correction in abnormal BODIPY-LacCer endocytic transport; also recorded: correction in BODIPY-LacCer transport to the Golgi"},
      {"measurement": "endogenous ganglioside GM1 / GSL trafficking from LE/Lys to Golgi", "setting": "SLOS (DHCR7−/−) MEFs", "result": "corrected altered endogenous ganglioside GM1 trafficking"},
      {"measurement": "ER neutral lipid levels (Nile red)", "setting": "[3]", "result": "restoration of normal levels of neutral lipids at the ER"},
      {"measurement": "neurological side effects", "setting": "[4]; adult mice", "result": "not to cause neurological side effects"},
      {"measurement": "CNS penetration", "setting": "[4]; mouse, in vivo", "result": "penetrate the CNS"},
      {"measurement": "effects on behaviour or CNS development", "setting": "[4]; mouse, in vivo", "result": "without significant effects on behaviour or CNS development"},
      {"measurement": "total ganglioside and GM1 content", "setting": "[5]", "result": "marked reduction"},
      {"measurement": "inhibition of GSL biosynthesis relative to NB-DNJ", "setting": "GSL biosynthesis", "result": "comparably to NB-DNJ"},
      {"measurement": "tolerability", "setting": "[6]; mouse models of GSL storage diseases", "result": "very well tolerated"},
      {"measurement": "side effect activities relative to NB-DNJ", "setting": "[6]; mouse, in vivo", "result": "lacks certain side effect activities associated with NB-DNJ"},
      {"measurement": "HRP uptake", "setting": "NPC1 cells", "result": "correction in HRP uptake"}
    ]}
  ]
}
